Source: patent US20050159599A1, “Cyclic compound, process for producing the same, and pest control agent” (priority 2002, published 2005)

Columns and labels:
Spodoptera litura [1] = experiment: Insecticidal effect for Spodoptera litura by immersion treatment of host crop root (Test Example 4); assay type: in vivo; settings: soybean root immersion 5 days, second-instar larvae of Spodoptera litura, fifth day after; for pest or weed control at 25 ppm: 120 h, read-out: rate of dead pests (%)
Procedure: Insecticidal Effect for Spodoptera litura by Immersion Treatment of Host Crop Root Roots of primary leaves developing stage soybean was washed with tap water to remove soil, and then immersed in a pesticidal solution which was prepared by dissolving 5 mg of test compound (represented by the compound Nos. in the above Examples) in 0.5 ml of acetone containing Tween 20 ([…]) with ion-exchange water, and which was filled in a light-shielded Erlenmeyer flask (100 ml). On the fifth day after immersion of root, two primary leaves were cut off, and the leaves were put into an ice cream cup (180 ml). Ten second-instar larvae of Spodoptera litura were set free therein, and the cup was left in a temperature-controlled breeding room (25° C.). On the fifth day after, the number of surviving Spodoptera litura was examined. The rate of dead pests was calculated by the following formula. rate of dead pests (%)=(number of dead pests/number of test pests)×100

Spodoptera litura [2] = experiment: Insecticidal effect for Spodoptera litura by spraying treatment to host crop (Test Example 2); assay type: in vivo; settings: 100 ppm, sprayed on soybean, third-instar larvae of Spodoptera litura, fifth day after; for pest or weed control at 100 ppm: 120 h, read-out: rate of dead pests (%)
Procedure: Insecticidal Effect for Spodoptera litura by Spraying Treatment to Host Crop
A pesticidal solution, which was prepared by dissolving 5 mg of test compound (represented by the compound Nos. in the above Examples) in 0.5-ml of acetone containing Tween 20 (trade name) and then diluting it to the prescribed concentration (100 ppm) with Dain (trade name, sticker) water diluted 5000-fold, was sprayed on a soybean whose primary leaves had developed completely with spray gun in the amounts wherein the pesticidal solution dripped. After drying the pesticidal solution, two primary leaves were cut off. The leaves were put into an ice cream cup (180 ml), and ten third-instar larvae of Spodoptera litura were set free therein. The cup was left in a temperature-controlled breeding room (25° C.). On the fifth day after, the number of surviving Spodoptera litura was examined. The rate of dead pests was calculated by the following formula. rate of dead pests (%)=(number of dead pests/number of test pests)×100

C[S+]([O-])c1cc(F)c(N2COCN(C(=O)c3c(F)cccc3F)C2=O)c(F)c1 (centres unmarked) [I-32]
rate of dead pests (%) (Spodoptera litura [1]; 25 ppm): 90% | rate of dead pests (%) (Spodoptera litura [2]): 100%

O=C(c1c(F)cccc1Cl)N1COCN(c2ccc([S+]([O-])C(F)F)cc2F)C1=O (centres unmarked) [I-219]
rate of dead pests (%) (Spodoptera litura [1]; 25 ppm): 100% | rate of dead pests (%) (Spodoptera litura [2]): 100%

C#CCN1CN(C(=O)c2c(F)cccc2F)C(=O)N(c2ccc(Cl)cc2)C1 [III-8]
rate of dead pests (%) (Spodoptera litura [1]; 25 ppm): 100% | rate of dead pests (%) (Spodoptera litura [2]): 100%

O=C(c1c(F)cccc1F)N1COCN(c2ccc([S+]([O-])C(F)(F)F)c(Cl)c2Cl)C1=O (centres unmarked) [I-93]
rate of dead pests (%) (Spodoptera litura [1]; 25 ppm): 100% | rate of dead pests (%) (Spodoptera litura [2]): 100%

CCSc1ccc(N2COCN(C(=O)c3c(F)cccc3F)C2=O)c(F)c1 [I-47]
rate of dead pests (%) (Spodoptera litura [1]; 25 ppm): 100% | rate of dead pests (%) (Spodoptera litura [2]): 100%

O=C(c1c(F)cccc1F)N1CN=CN(c2ccc(Cl)cc2)C1=O [V-1]
rate of dead pests (%) (Spodoptera litura [1]; 25 ppm): 100% | rate of dead pests (%) (Spodoptera litura [2]): 100%

CC(C)Sc1ccc(N2COCN(C(=O)c3c(F)cccc3F)C2=O)c(F)c1 [I-53]
rate of dead pests (%) (Spodoptera litura [1]; 25 ppm): 100% | rate of dead pests (%) (Spodoptera litura [2]): 100%

O=C(c1c(F)cccc1F)N1COCN(c2ccc(SC(F)(F)C(F)(F)F)cc2F)C1=O [I-128, 3-(2,6-difluorobenzoyl)-5-[2-fluoro-4-(1,1,2,2,2-pentafluoroethylthio)phenyl]tetrahydro-4H-1,3,5-oxadiazin-4-one]
pest or weed control at 25 ppm (Spodoptera litura [1]; 25 ppm): 100% | pest or weed control at 100 ppm (Spodoptera litura [2]): 100%

O=C(c1c(F)cccc1Cl)N1COCN(c2cc(Cl)c(SC(F)(F)F)cc2F)C1=O [I-275]
rate of dead pests (%) (Spodoptera litura [1]; 25 ppm): 100% | rate of dead pests (%) (Spodoptera litura [2]): 100%

O=C(c1c(F)cccc1F)N1COCN(c2ccc(Cl)cc2)C1=O [I-1, 3-(4-chlorophenyl)-5-(2,6-difluorobenzoyl)tetrahydro-4H-1,3,5-oxadiazin-4-one]
pest or weed control at 25 ppm (Spodoptera litura [1]; 25 ppm): 100% | pest or weed control at 100 ppm (Spodoptera litura [2]): 100%

O=C(c1c(F)cccc1F)N1CSCN(CC(F)(F)F)C1=O [II-64]
rate of dead pests (%) (Spodoptera litura [1]; 25 ppm): 95%

O=C(c1c(F)cccc1F)N1COCN(c2cc(Cl)c(SC(F)(F)F)cc2F)C1=O [I-98]
rate of dead pests (%) (Spodoptera litura [1]; 25 ppm): 95% | rate of dead pests (%) (Spodoptera litura [2]): 100%

C=CCSc1ccc(N2COCN(C(=O)c3c(F)cccc3F)C2=O)c(F)c1 [I-59]
rate of dead pests (%) (Spodoptera litura [1]; 25 ppm): 100% | rate of dead pests (%) (Spodoptera litura [2]): 100%

CCCSc1ccc(N2COCN(C(=O)c3c(F)cccc3F)C2=O)c(F)c1 [I-50]
rate of dead pests (%) (Spodoptera litura [1]; 25 ppm): 100%

O=C(c1c(F)cccc1Cl)N1COCN(c2ccc([S+]([O-])C(F)(F)F)c(Cl)c2)C1=O (centres unmarked) [I-255]
rate of dead pests (%) (Spodoptera litura [1]; 25 ppm): 100% | rate of dead pests (%) (Spodoptera litura [2]): 100%

O=C(c1c(F)cccc1F)N1COCN(c2c(F)cc(SC(F)(F)F)cc2Cl)C1=O [I-101]
rate of dead pests (%) (Spodoptera litura [1]; 25 ppm): 100% | rate of dead pests (%) (Spodoptera litura [2]): 100%

O=C(c1c(F)cccc1Cl)N1COCN(c2c(F)cc(SC(F)(F)F)cc2F)C1=O [I-281]
rate of dead pests (%) (Spodoptera litura [1]; 25 ppm): 100% | rate of dead pests (%) (Spodoptera litura [2]): 100%

CN1CN(CC(F)(F)F)C(=O)N(C(=O)c2c(F)cccc2F)C1 [III-144]
rate of dead pests (%) (Spodoptera litura [1]; 25 ppm): 100%

O=C(c1c(F)cccc1F)N1COCN(c2c(F)cc(SC(F)(F)F)cc2F)C1=O [I-104]
rate of dead pests (%) (Spodoptera litura [1]; 25 ppm): 100% | rate of dead pests (%) (Spodoptera litura [2]): 100%

O=C(c1c(Cl)cccc1Cl)N1COCN(c2ccc([S+]([O-])C(F)(F)F)cc2F)C1=O (centres unmarked) [I-399]
rate of dead pests (%) (Spodoptera litura [1]; 25 ppm): 100% | rate of dead pests (%) (Spodoptera litura [2]): 100%

O=C(c1c(F)cccc1F)N1COCN(CC(F)(F)F)C1=O [I-40]
rate of dead pests (%) (Spodoptera litura [1]; 25 ppm): 100% | rate of dead pests (%) (Spodoptera litura [2]): 100%

C#CCSc1ccc(N2COCN(C(=O)c3c(F)cccc3F)C2=O)c(F)c1 [I-62]
rate of dead pests (%) (Spodoptera litura [1]; 5 ppm (so in the source)): 100% | rate of dead pests (%) (Spodoptera litura [2]): 100%

CC[S+]([O-])c1ccc(N2COCN(C(=O)c3c(F)cccc3F)C2=O)c(F)c1 (centres unmarked) [I-48]
rate of dead pests (%) (Spodoptera litura [1]; 25 ppm): 100%

O=C(c1c(F)cccc1Cl)N1COCN(c2ccc([S+]([O-])C(F)(F)F)cc2Cl)C1=O (centres unmarked) [I-252]
rate of dead pests (%) (Spodoptera litura [1]; 25 ppm): 100% | rate of dead pests (%) (Spodoptera litura [2]): 100%

O=C(c1c(F)cccc1Cl)N1COCN(c2ccc([S+]([O-])C(F)(F)C(F)(F)F)cc2F)C1=O (centres unmarked) [I-306]
rate of dead pests (%) (Spodoptera litura [1]; 25 ppm): 100% | rate of dead pests (%) (Spodoptera litura [2]): 100%

O=C(c1c(F)cccc1F)N1C=NCN(c2cc(Cl)c(F)c(Cl)c2F)C1=O [IV-4, 3-(3,5-dichloro-2,4-difluorophenyl)-1-(2,6-difluorobenzoyl)-3,4-dihydro-1,3,5-triazin-2(1H)-one]
pest or weed control at 25 ppm (Spodoptera litura [1]; 25 ppm): 100%

COC(=O)C(=O)N1CN(C(=O)c2c(F)cccc2F)C(=O)N(c2ccc(Cl)cc2)C1 [III-15]
rate of dead pests (%) (Spodoptera litura [1]; 25 ppm): 95%

O=C(c1c(F)cccc1Cl)N1COCN(c2ccc(SC(F)(F)C(F)(F)C(F)(F)F)cc2Cl)C1=O [I-323]
rate of dead pests (%) (Spodoptera litura [2]): 100%

CC(=O)N1CN(C(=O)c2c(F)cccc2F)C(=O)N(c2ccc([S+]([O-])C(F)(F)F)cc2F)C1 (centres unmarked) [III-165]
rate of dead pests (%) (Spodoptera litura [2]): 100%

CC(=O)N1CN(C(=O)c2c(F)cccc2F)C(=O)N(c2ccc(Cl)cc2)C1 [III-9, 5-acetyl-1-(4-chlorophenyl)-3-(2,6-difluorobenzoyl)tetrahydro-1,3,5-triazin-2(1H)-one]
pest or weed control at 25 ppm (Spodoptera litura [1]; 25 ppm): 95%

O=C(c1c(F)cccc1Cl)N1COCN(c2ccc([S+]([O-])C(F)(F)F)c(Cl)c2F)C1=O (centres unmarked) [I-273]
rate of dead pests (%) (Spodoptera litura [2]): 100%

O=C(c1c(F)cccc1F)N1CN(C(=O)C(F)(F)F)CN(c2ccc(Oc3ccc(C(F)(F)F)cc3Cl)cc2F)C1=O [III-32]
rate of dead pests (%) (Spodoptera litura [2]): 100%

Cc1cc([S+]([O-])C(F)(F)F)c(F)cc1N1COCN(C(=O)c2c(F)cccc2Cl)C1=O (centres unmarked) [I-303]
rate of dead pests (%) (Spodoptera litura [2]): 100%

O=C(c1c(F)cccc1F)N1COCN(c2ccc([S+]([O-])C(F)(F)F)c(Cl)c2F)C1=O (centres unmarked) [I-96]
rate of dead pests (%) (Spodoptera litura [2]): 100%

O=C(c1c(F)cccc1F)N1COCN(c2cc(F)c(SC(F)(F)F)c(F)c2)C1=O [I-113]
rate of dead pests (%) (Spodoptera litura [2]): 100%

Cc1cc(SC(F)(F)C(F)(F)C(F)(F)F)c(Cl)cc1N1COCN(C(=O)c2c(F)cccc2Cl)C1=O [I-329]
rate of dead pests (%) (Spodoptera litura [2]): 100%

CC(c1ccccc1)N1CN(C(=O)c2c(F)cccc2F)C(=O)N(c2ccc(Cl)cc2)C1 (centres unmarked) [III-14]
rate of dead pests (%) (Spodoptera litura [2]): 100%

CN1CN(C(=O)c2c(F)cccc2F)C(=O)N(c2ccc(SC(F)(F)C(F)Cl)cc2F)C1 (centres unmarked) [III-76]
rate of dead pests (%) (Spodoptera litura [2]): 100%

O=C(c1c(F)cccc1F)N1COCN(c2ccc(SC(F)(F)F)c(Cl)c2Cl)C1=O [I-92]
rate of dead pests (%) (Spodoptera litura [2]): 100%

O=C(c1c(F)cccc1Cl)N1COCN(c2c(F)cc([S+]([O-])C(F)(F)F)cc2Cl)C1=O (centres unmarked) [I-279]
rate of dead pests (%) (Spodoptera litura [2]): 100%

Cc1c(N2COCN(C(=O)c3c(F)cccc3Cl)C2=O)ccc([S+]([O-])C(F)(F)F)c1Cl (centres unmarked) [I-300]
rate of dead pests (%) (Spodoptera litura [2]): 100%

O=C(c1c(Cl)cccc1Cl)N1COCN(c2ccc([S+]([O-])C(F)F)cc2F)C1=O (centres unmarked) [I-396]
rate of dead pests (%) (Spodoptera litura [1]; 25 ppm): 100%

O=C(c1c(F)cccc1F)N1CN(Cc2ccccc2)CN(c2ccc(Cl)cc2)C1=O [III-4]
rate of dead pests (%) (Spodoptera litura [2]): 100%

CSc1cc(F)c(N2COCN(C(=O)c3c(F)cccc3F)C2=O)c(F)c1 [I-31]
rate of dead pests (%) (Spodoptera litura [2]): 100%

O=C(c1c(F)cccc1Cl)N1COCN(c2ccc(SC(F)(F)F)cc2Cl)C1=O [I-251]
rate of dead pests (%) (Spodoptera litura [1]; 25 ppm): 90%

CC(C)N1CN(C(=O)c2c(F)cccc2F)C(=O)N(c2cc(Cl)c(F)c(Cl)c2F)C1 [III-52]
rate of dead pests (%) (Spodoptera litura [2]): 100%

CS(=O)(=O)N1CN(C(=O)c2c(F)cccc2F)C(=O)N(c2ccc([S+]([O-])C(F)(F)F)cc2F)C1 (centres unmarked) [III-166]
rate of dead pests (%) (Spodoptera litura [2]): 100%
